Values of other authors as cited in patent US10393636B2 (priority 2017, dated 2019).

CN[C@H]1CC[C@@H](c2ccc(Cl)c(Cl)c2)c2ccccc21 [Sertraline]
Log P: 5.06
